Results taken from patent publication US20260166182A1, “CYANINE-BASED FLUOROPHORES” (The General Hospital Corporation, priority 2022, published 2026).

Legend:
LLC tumor = test: Quantitative 3D FLECT/CT tumor accumulation; format: in vivo, mouse; conditions: from 24 h to 48 h post-injection
Method: Quantitative analysis using InSyTe FLECT/CT: 3D fluorescence images were acquired with the TriFoil Imaging InSyTe FLECT/CT, a commercial preclinical imaging system with full 3D fluorescence tomography imaging capability and an inline CT system. Animals were anesthetized with isoflurane during scans. FLECT scans were performed with 116 projections per slice, 780 nm laser for excitation, and 853/45 bandpass fluorescence emission filter. After data collection, fluorescence images were reconstructed using a proprietary FLECT reconstruction engine. CT scans were performed with 360 projections per slice, 35 kV tube voltage, 950 uA tube current, and 100 ms exposure. CT images were reconstructed using the COBRA filtered back-projection algorithm (Exxim, Computing Corporation, Pleasanton, CA). Quantitative analysis of 3D fluorescence images was performed using the VivoQuant 2020 image analysis software (Invicro, Boston, MA). FLECT and CT images were co-registered in VivoQuant 2020. Volumes-of-interest (VOI) were segmented via intensity thresholding, where the threshold limits were set to the local full-width-half-maximum (FWHM) intensity value for the lower threshold bound and local maximum intensity value for the upper threshold bound.

[1] = Photostability under xenon lamp irradiation; format: physicochemical; conditions: 2 h
Method: Optical Study, Photostability, Physicochemical Properties, and DFT Calculation: 1 mM stock solution in DMSO of the synthesized fluorophores was prepared before starting any spectral measurement. Optical properties for the synthesized fluorophores were measured in four different solvents (EtOH, DMSO, HEPES, and PBS). Absorbance spectra were measured in a Varian Cary 50 absorbance spectrophotometer (190-1100 nm). Fluorescence emission and photostability were measured and emission spectra were recorded on a Shimadzu RF-5301PC spectrofluorometer. Physicochemical properties (Log D, molecular mass, TPSA, H bond D/A, polarizability, molecular volume, and rotatable bonds) were predicted by ChemAxon (JChem plugin). Theoretical calculations of frontier molecular orbitals (FMOs) for the optimized structures of selected fluorophores were calculated based on DFT calculations at the B3LYP/6-311G(d,p) level.
In consideration of theranostic (therapeutics and diagnostic) applications, NIR cyanine fluorophores are synthesized for fluorescence imaging, photodynamic therapy (PDT), photothermal therapy (PTT), optoacoustic imaging, and cancer immunotherapy. One of the approaches before using these fluorophores in those applications is to study their biodistribution and clearance pattern in vivo. […] The power density of 150 W is much higher than the required power for fluorescence imaging, considering that the time it takes for a fluorophore to clear from the background and accumulate in sufficient quantities in the targeted tissues is unknown. […] By considering this, an aliquot of the stock solution (1 mM in DMSO) was diluted in ethanol, and the fluorescence intensity was measured at the excitation wavelength same as their absorption maxima (nm). Photodegradation rates were measured every 20 min intervals for the selected fluorophores based on the % reduced fluorescence intensity starting from 100%. […] The data were collected in every 20 min intervals under continuous irradiation with a xenon lamp at 150 W for 2 h and presented based on the % reduced fluorescence intensity starting from 100%. […]

LLC cells = test: Cytotoxicity study (CCK-8 cell proliferation); format: cell-based; conditions: 24 h incubation
Method: Cytotoxicity study: 200 μL of cell suspension was added into a 96-well plate to have 5000 cells in each well. The plate was pre-incubated for 24 hours in a humidified incubator for cells to attach on the bottom of the plate. Stock solutions of SH1, IR-780, and DMSO were premixed with the cell culture media (DMEM containing 10% FBS) to 50 μM, and premixed solutions were filtered using a syringe filter ([…]), and then were diluted to final concentrations of 1-25 μM. After cells reached the desired density (40-50% confluency), the existing media was removed and exchanged with the above solutions at certain concentrations. The plate was further incubated for 24 h. The cell proliferation was determined using a CCK-8 Kit.

In the case of `CCCCN1/C(=C/C=C2\CCCC(/C=C/C3=[N+](CCCC)c4ccc(Cl)cc4C3(C)C)=C2Cl)C(C)(C)c2cc(Cl)ccc21` [SH1, 1-butyl-2-((E)-2-((E)-3-(2-((E)-1-butyl-5-chloro-3,3-dimethylindolin-2-ylidene)ethylidene)-2-chlorocyclohex-1-en-1-yl)vinyl)-5-chloro-3,3-dimethyl-3H-indol-1-ium], the “increase of % ID in cancer area” value (LLC tumor) is reported as “more than 2 fold”, the “photodegradation (% reduced fluorescence intensity)” value [1] is reported as “I-4” and the “concentration that did not affect cell proliferation” value (LLC cells) is reported as “up to 10 μM”.
